In US20200368223A1, “METHODS FOR INHIBITING PHOSPHATE TRANSPORT” (Ardelyx, Inc., priority 2019, published 2020):
Entries after “also recorded” stand apart in the source; their conditions may differ.

How the values were obtained:
[1] = tested on: uremic rat model of CKD featuring vascular calcification; experiment: Rat model of uremia-associated vascular calcification (5/6th nephrectomy, calcitriol, 0.9% P diet); assay type: in vivo
From the text: Chronic kidney disease (CKD) has multiple pathogenic mechanisms, and advanced CKD is often characterized by disordered mineral metabolism (e.g., hyperphosphatemia, hypercalcemia) and vascular calcification.

[2] = tested on: adenine-induced uremic rat model; experiment: Adenine-induced uremic rat model; assay type: in vivo
Experimental: The effects of Cpd 002(were tested in an adenine-induced uremic rat model. Rats were fed a diet including 0.75% adenine and 1.2% phosphorus during the nephritis induction phase. The basal diet during the treatment phase was normal chow including 0.3% adenine and 0.6% phosphorus for 2 weeks. The rats were pair-fed the first 5 days (groups 1 and 2 to group 3, 4 days apart), and fed ad libitum afterwards. The treatment groups were as follows: vehicle, n=10; Cpd 002, 2 mg/kg/day drug-in-chow, n=10; and Cpd 002, 5 mg/kg/day drug-in-chow, n=12. Weekly measurements were taken for serum markers and kidney function.

[3] = tested on: dietary salt-induced, partial renal ablation model of CKD; experiment: Renal insufficiency with high salt feed in nephrectomized rats; assay type: in vivo, rat
Experimental: The effects of Cpd 002 were tested in a dietary salt-induced, partial renal ablation model of CKD.

rats = experiment: Urinary excretion of phosphate and calcium in rats; assay type: in vivo, rat; conditions: 16 hours overnight urine
Experimental: The activity of compound 002 was tested for its effects on phosphorus and calcium levels in the urine of rats. Rats were dosed according to the schedule in Table E7.
The rats were kept for 16 hours overnight (in the dark, the typical feeding period) in individual metabolic cages, and urine was collected the following morning for analysis of phosphate and calcium levels. The study design is shown WO2014169094.

[4] = In vitro dissolution of CPD002 formulations; assay type: physicochemical; conditions: CPD002 formulations at high pH
[5] = haemodialysis patients; cited from earlier work
Sprague Dawley (SD) rats = experiment: Combination treatment with tenapanor and sevelamer in rats (urinary and renal phosphorous and sodium, BLISS model)
Experimental: A total of 48, approximately 8-week-old male Sprague Dawley (SD) rats (Envigo, Livermore, Calif.), weighing approximately 250 g on arrival, were housed 2-per cage in micro-isolator cages for a 48-hr acclimation period prior to being assigned to study groups. Animals were housed in a temperature (65-75° F.) and humidity (35-55%) controlled facility utilizing a reversed 12-hour light/dark cycle (7 AM-7 PM dark cycle). […] Body weights were recorded at study initiation and daily for the remainder of the study. Animals were maintained in accordance with the Guide for the Care and Use of Laboratory Animals (National Research Council, 2011). The study was conducted under a protocol approved by the Institutional Animal Care and Use Committee.
Rats were randomly assigned to one of eight groups (n=6/group) provided with a diet containing varying amounts of sevelamer (0-3% w/w) and were dosed by oral gavage twice daily with vehicle (0.01% Tween80) or tenapanor (0.15 mg/kg) for 11-consecutive days according to the study assignments shown in the following table.
Rats dosed orally with vehicle and provided diet without sevelamer (Group 1) served as the control group. Treatment arms included groups treated with tenapanor alone (0.15 mg/kg, bid), sevelamer alone (0.75, 1,5 or 3% w/w in chow) and the combination of tenapanor (0.15 mg/kg, bid) with each dose level of sevelamer (0.75, 1,5 or 3% w/w in chow). Animals were dosed in their home cages while pair-housed for the first five treatment days. On treatment day 6, all animals were housed individually in metabolic cages for the remainder of the study and continued to be provided ad libitum access to diet containing 0-3% sevelamer w/w and dosed twice daily with vehicle or tenapanor. Following two days acclimation to the metabolic cages, 24-hour food intake, water intake and urinary volume were measured and recorded for the final four treatment days. Urinary sodium and phosphorous concentration was measured by ion chromatography (IC). 24-hour urinary sodium and phosphorous excretion were calculated by multiplying ion concentration by 24-hour urine volume. Urinary ion excretion was also normalized to daily dietary ion intake to account for daily fluctuations in food intake.
Dosing solutions containing tenapanor (Ardelyx, Fremont Calif.) at a concentration of 0.03 mg/mL were made fresh weekly by adding the appropriate weight of tenapanor to 0.1% Tween 80 vehicle. The dose volume was 5 mL/kg for all groups.
Animals were dosed twice daily (bid) orally (po), immediately prior to lights out (7 AM) and during the middle of dark cycle (2 PM) with a standard gavage needle (38 mm, 20 G). Animals were removed from the holding or metabolic cages for dosing and then immediately returned to the cage of origin.
Urine samples were analyzed for sodium and phosphorous content on an ion chromatography system (Thermo Fisher Scientific ICS-3000 or ICS-5000+) coupled with conductivity detectors.

[6] = Cpd 002 0.065 mg/g chow vs vehicle diet, listed as Cpd 002
[7] = endpoint day 27, Cpd 002 0.065 mg/g chow vs vehicle diet
[8] = endpoint, Cpd 002 0.065 mg/g chow vs vehicle diet
[9] = early time points, Cpd 002 2 or 5 mg/kg/day drug-in-chow
[10] = week three, at the highest dose
[11] = tenapanor 0.15 mg/kg po bid alone, four day collection period, relative to control group 1

For `CN1Cc2c(Cl)cc(Cl)cc2[C@H](c2cccc(S(=O)(=O)NCCOCCOCCNC(=O)NCCCCNC(=O)NCCOCCOCCNS(=O)(=O)c3cccc([C@@H]4CN(C)Cc5c(Cl)cc(Cl)cc54)c3)c2)C1` [Tenapanor, tenapanor], the “hypertrophy of the heart (endpoint heart weight)” value [1, 6] was “lessened; also recorded: reduce”, the “hypertrophy of the kidney remnant (endpoint kidney remnant weight)” value [1, 6] was “lessened; also recorded: reduce” and the “plasma FGF-23” value [1, 7] was “reduced”. The plasma creatinine [1, 7] was “reduced”, the plasma phosphorus ([1]; endpoint day 27, Cpd 002 0.065 mg/g chow vs vehicle diet, listed as Cpd 002) was “reduced; also recorded: anti-hyperphosphatemic effects” and the “calcium in the stomach (soft tissue calcification)” value [1, 8] was “reduced”. The “phosphorus in the stomach (soft tissue calcification)” value [1, 8] was “reduced”, the plasma aldosterone levels [1, 8] was “increase” and the “vascular calcification as measured by aortic mineral content” value ([1]; endpoint, Cpd 002 0.065 mg/g chow vs vehicle diet, listed as Cpd 002) was “reduce”. The moribundity ([1]; treatment group vs vehicle) was “decreased”, the mortality outcome ([1]; treatment group vs vehicle) was “trend toward improved mortality outcome” and the serum creatinine [2, 9] was “reduced”. For the same compound, the serum phosphorus [2, 9] was “reduced”, the “heart remodeling (organ weight)” value ([2]; week three) was “trend towards lesser” and the “kidney remodeling (organ weight)” value ([2]; week three) was “trend towards lesser”. For the same compound, the heart calcification [2, 10] was “trend towards reduced”, the kidney calcification [2, 10] was “trend towards reduced” and the albuminuria [3] was “improved”. The blood pressure [3] was “improved”, the fluid overload [3] was “improved” and the heart hypertrophy [3] was “improved”. For the same compound, the kidney hypertrophy [3] was “improved”, the phosphorus urinary excretion [3] was “significantly reduced” and the “urine phosphorus mass relative to the vehicle-only control” value (rats; Cpd 002 0.1-3.0 mg/kg) was “reduced”. The “urine phosphorus mass relative to 48 mg/kg Renvela” value (rats; increasing dosages of Cpd 002) was “significantly reduced”, the “in vitro dissolution profile” value [4] was “slower and/or incomplete dissolution” and the serum phosphate levels [5] was “significantly lower”. The urinary sodium excretion (Sprague Dawley (SD) rats; single agent, compared to vehicle control) was “significantly decreased”, the “24-hr urinary phosphorous excretion” value (Sprague Dawley (SD) rats; single agent, compared to vehicle control, final four days of treatment) was “significantly decreased” and the “% Reduction Urinary Phosphorous Excretion When Dosed Alone” value (Sprague Dawley (SD) rats; [11]) was 33.2%. For the same compound, the “% Reduction Urinary Sodium Excretion When Dosed Alone” value (Sprague Dawley (SD) rats; [11]) was 82.1% and the urinary sodium excretion (Sprague Dawley (SD) rats; tenapanor co-administered with all doses of sevelamer, compared to control) was “significantly reduced”.
